Data as given in ChEMBL document CHEMBL3102853, “Carbonic anhydrase inhibitors. Synthesis, and molecular structure of novel series N-substituted N'-(2-arylmethylthio-4-chloro-5-methylbenzenesulfonyl)guanidines and their inhibition of human cytosolic isozymes I and II and the transmembrane tumor-associated isozymes IX and XII” (Eur J Med Chem, 2014).
The source made the active and inactive calls. The calls are words filed in the database; no cut-off is given here.

Tests used:
Format in all cases: functional
MDA-MB-468 [1] = test: Cytotoxicity against human MDA-MB-468 cells
IGROV-1 = test: Cytotoxicity against human IGROV1 cells
T47D [2] = test: Cytotoxicity against human T47D cells
BT-549 = test: Cytotoxicity against human BT549 cells
[3] = Cytotoxicity against human Hs 578T cells
MCF7 [4] = test: Cytotoxicity against human MCF7 cells
MDA-MB-231 = test: Cytotoxicity against human MDA-MB-231 cells
PC-3 [5] = test: Cytotoxicity against human PC3 cells
A498 [6] = test: Cytotoxicity against human A498 cells
OVCAR-8 = test: Cytotoxicity against human OVCAR8 cells
OVCAR-3 [7] = test: Cytotoxicity against human OVCAR3 cells
[8] = Cytotoxicity against human OVCAR4 cells
UACC-62 [9] = test: Cytotoxicity against human UACC62 cells
[10] = Cytotoxicity against human UACC257 cells
SK-MEL-2 [11] = test: Cytotoxicity against human SK-MEL-2 cells
SK-MEL-28 = test: Cytotoxicity against human SK-MEL-28 cells
MDA-MB-435 = test: Cytotoxicity against human MDA-MB-435 cells
M14 = test: Cytotoxicity against human M14 cells
Malme-3M = test: Cytotoxicity against human MALME-3M cells
LOX IMVI [12] = test: Cytotoxicity against human LOXIMVI cells
SNB-19 = test: Cytotoxicity against human SNB19 cells
SNB-75 [13] = test: Cytotoxicity against human SNB75 cells
SF-268 [14] = test: Cytotoxicity against human SF268 cells
KM12 [15] = test: Cytotoxicity against human KM12 cells
SF-539 = test: Cytotoxicity against human SF539 cells
HCT-116 = test: Cytotoxicity against human HCT116 cells
HCC 2998 = test: Cytotoxicity against human HCC2998 cells
NCI-H522 = test: Cytotoxicity against human NCI-H522 cells
COLO 205 = test: Cytotoxicity against human COLO205 cells
NCI-H460 [16] = test: Cytotoxicity against human NCI-H460 cells
HOP-92 [17] = test: Cytotoxicity against human HOP92 cells
RPMI-8226 [18] = test: Cytotoxicity against human RPMI8226 cells
SR [19] = test: Cytotoxicity against human SR cells
MOLT-4 [20] = test: Cytotoxicity against human MOLT4 cells
K562 [21] = test: Cytotoxicity against human K562 cells
CCRF-CEM = test: Cytotoxicity against human CCRF-CEM cells
HL-60(TB) [22] = test: Cytotoxicity against human HL-60(TB) cells
[23] = Cytotoxicity against human Hs 578T cells at 10 uM; details: read-out: GI
MDA-MB-468 [24] = test: Cytotoxicity against human MDA-MB-468 cells at 10 uM; details: read-out: GI
MCF7 [25] = test: Cytotoxicity against human MCF7 cells at 10 uM; details: read-out: GI
T47D [26] = test: Cytotoxicity against human T47D cells at 10 uM; details: read-out: GI
DU-145 = test: Cytotoxicity against human DU145 cells at 10 uM; details: read-out: GI
PC-3 [27] = test: Cytotoxicity against human PC3 cells at 10 uM; details: read-out: GI
A498 [28] = test: Cytotoxicity against human A498 cells at 10 uM; details: read-out: GI
NCI/ADR-RES = test: Cytotoxicity against human NCI-ADR-RES cells at 10 uM
LOX IMVI [29] = test: Cytotoxicity against human LOXIMVI cells at 10 uM; details: read-out: GI
OVCAR-3 [30] = test: Cytotoxicity against human OVCAR3 cells at 10 uM; details: read-out: GI
UACC-62 [31] = test: Cytotoxicity against human UACC62 cells at 10 uM; details: read-out: GI
SK-MEL-2 [32] = test: Cytotoxicity against human SK-MEL-2 cells at 10 uM; details: read-out: GI
SF-268 [33] = test: Cytotoxicity against human SF268 cells at 10 uM; details: read-out: GI
SW-620 = test: Cytotoxicity against human SW620 cells at 10 uM; details: read-out: GI
SNB-75 [34] = test: Cytotoxicity against human SNB75 cells at 10 uM; details: read-out: GI
KM12 [35] = test: Cytotoxicity against human KM12 cells at 10 uM; details: read-out: GI
HT-29 = test: Cytotoxicity against human HT-29 cells at 10 uM; details: read-out: GI
HOP-92 [36] = test: Cytotoxicity against human HOP92 cells at 10 uM; details: read-out: GI
NCI-H460 [37] = test: Cytotoxicity against human NCI-H460 cells at 10 uM; details: read-out: GI
A549 = test: Cytotoxicity against human A549 cells at 10 uM; details: read-out: GI
SR [38] = test: Cytotoxicity against human SR cells at 10 uM; details: read-out: GI
MOLT-4 [39] = test: Cytotoxicity against human MOLT4 cells at 10 uM; details: read-out: GI
RPMI-8226 [40] = test: Cytotoxicity against human RPMI8226 cells at 10 uM; details: read-out: GI
K562 [41] = test: Cytotoxicity against human K562 cells at 10 uM; details: read-out: GI
HL-60(TB) [42] = test: Cytotoxicity against human HL-60(TB) cells at 10 uM; details: read-out: GI
[43] = read-out: LC50 (the source's name)

Cc1cc(S(=O)(=O)NC(=N)Nc2ccc(S(N)(=O)=O)cc2)c(SCc2ccc(C(F)(F)F)cc2)cc1Cl
GI50 (MDA-MB-468 [1]): 2.7 µM
TGI (MDA-MB-468 [1]): 15 µM
CC50 (MDA-MB-468 [1]; [43]): 81.6 µM
GI50 (IGROV-1): 5.8 µM
TGI (IGROV-1): 23.3 µM
CC50 (IGROV-1; [43]): 93 µM
GI50 (T47D [2]): 5.1 µM
TGI (T47D [2]): 22.8 µM
CC50 (T47D [2]; [43]): 95.8 µM
GI50 (BT-549): 4.6 µM
TGI (BT-549): 18.5 µM
CC50 (BT-549; [43]): 58 µM
GI50 [3]: 3.7 µM
TGI [3]: 24.6 µM
CC50 [3, 43]: > 100 µM
GI50 (MCF7 [4]): 2.9 µM
TGI (MCF7 [4]): 14.1 µM
CC50 (MCF7 [4]; [43]): 69.7 µM
GI50 (MDA-MB-231): 2.5 µM
TGI (MDA-MB-231): 11.1 µM
CC50 (MDA-MB-231; [43]): 37 µM
GI50 (PC-3 [5]): 3.7 µM
TGI (PC-3 [5]): 13.7 µM
CC50 (PC-3 [5]; [43]): 40.9 µM
GI50 (A498 [6]): 4.6 µM
TGI (A498 [6]): 21.1 µM
CC50 (A498 [6]; [43]): 53.7 µM
GI50 (OVCAR-8): 4.6 µM
TGI (OVCAR-8): 22.9 µM
CC50 (OVCAR-8; [43]): 87.6 µM
GI50 (OVCAR-3 [7]): 3.9 µM
TGI (OVCAR-3 [7]): 14 µM
CC50 (OVCAR-3 [7]; [43]): 39 µM
GI50 ([8]; OVCAR-4): 3.9 µM
TGI ([8]; OVCAR-4): 25.1 µM
CC50 ([8]; OVCAR-4, read-out: LC50 (the source's name)): > 100 µM
GI50 (UACC-62 [9]): 2.6 µM
TGI (UACC-62 [9]): 10.4 µM
CC50 (UACC-62 [9]; [43]): 33 µM
GI50 ([10]; UACC-257): 3.6 µM
TGI ([10]; UACC-257): 15.2 µM
CC50 ([10]; UACC-257, read-out: LC50 (the source's name)): 41.1 µM
GI50 (SK-MEL-2 [11]): 2.4 µM
TGI (SK-MEL-2 [11]): 6.3 µM
CC50 (SK-MEL-2 [11]; [43]): 25.3 µM
GI50 (SK-MEL-28): 4.2 µM
TGI (SK-MEL-28): 15.6 µM
CC50 (SK-MEL-28; [43]): 46.6 µM
GI50 (MDA-MB-435): 3.8 µM
TGI (MDA-MB-435): 14.8 µM
CC50 (MDA-MB-435; [43]): 46.1 µM
GI50 (M14): 7.3 µM
TGI (M14): 22 µM
CC50 (M14; [43]): 56.3 µM
GI50 (Malme-3M): 6.7 µM
TGI (Malme-3M): 21 µM
CC50 (Malme-3M; [43]): 52.5 µM
GI50 (LOX IMVI [12]): 4.9 µM
TGI (LOX IMVI [12]): 17.7 µM
CC50 (LOX IMVI [12]; [43]): 48.4 µM
GI50 (SNB-19): 5 µM
TGI (SNB-19): 21.5 µM
CC50 (SNB-19; [43]): 61.1 µM
GI50 (SNB-75 [13]): 2.7 µM
TGI (SNB-75 [13]): 17.4 µM
CC50 (SNB-75 [13]; [43]): 66.1 µM
GI50 (SF-268 [14]): 5.5 µM
TGI (SF-268 [14]): 21.2 µM
CC50 (SF-268 [14]; [43]): 64.8 µM
GI50 (KM12 [15]): 3.1 µM
TGI (KM12 [15]): 10.9 µM
CC50 (KM12 [15]; [43]): 40.2 µM
GI50 (SF-539): 4.8 µM
TGI (SF-539): 18.3 µM
CC50 (SF-539; [43]): 45.1 µM
GI50 (HCT-116): 4 µM
TGI (HCT-116): 15.4 µM
CC50 (HCT-116; [43]): 45.9 µM
GI50 (HCC 2998): 3.9 µM
TGI (HCC 2998): 13.8 µM
CC50 (HCC 2998; [43]): 46.2 µM
GI50 (NCI-H522): 3.9 µM
TGI (NCI-H522): 16.3 µM
CC50 (NCI-H522; [43]): 48.5 µM
GI50 (COLO 205): 4.4 µM
TGI (COLO 205): 17.7 µM
CC50 (COLO 205; [43]): 80.6 µM
GI50 (NCI-H460 [16]): 4.2 µM
TGI (NCI-H460 [16]): 18.5 µM
CC50 (NCI-H460 [16]; [43]): 90 µM
GI50 (HOP-92 [17]): 2.7 µM
TGI (HOP-92 [17]): 8.6 µM
CC50 (HOP-92 [17]; [43]): 33.9 µM
GI50 (RPMI-8226 [18]): 3.1 µM
TGI (RPMI-8226 [18]): 11 µM
CC50 (RPMI-8226 [18]; [43]): > 100 µM
GI50 (SR [19]): 2.1 µM
TGI (SR [19]): 5.9 µM
CC50 (SR [19]; [43]): > 100 µM
GI50 (MOLT-4 [20]): 2.8 µM
TGI (MOLT-4 [20]): 11.2 µM
CC50 (MOLT-4 [20]; [43]): > 100 µM
GI50 (K562 [21]): 3.6 µM
TGI (K562 [21]): 21.1 µM
CC50 (K562 [21]; [43]): > 100 µM
GI50 (CCRF-CEM): 3.8 µM
TGI (CCRF-CEM): 15.2 µM
CC50 (CCRF-CEM; [43]): 86.2 µM
GI50 (HL-60(TB) [22]): 2.1 µM
TGI (HL-60(TB) [22]): 5.5 µM
CC50 (HL-60(TB) [22]; [43]): 34.5 µM
inhibition of growth at 10 µM [23]: 20%
inhibition of growth at 10 µM (MDA-MB-468 [24]): 63%
inhibition of growth at 10 µM (MCF7 [25]): 69%
inhibition of growth at 10 µM (T47D [26]): 58%
inhibition of growth at 10 µM (DU-145): 9%
inhibition of growth at 10 µM (PC-3 [27]): 74%
inhibition of growth at 10 µM (A498 [28]): 15%
growth inhibition (GI) (NCI/ADR-RES): inactive
inhibition of growth at 10 µM (LOX IMVI [29]): 29%
inhibition of growth at 10 µM (OVCAR-3 [30]): 50%
inhibition of growth at 10 µM (UACC-62 [31]): 49%
inhibition of growth at 10 µM (SK-MEL-2 [32]): 43%
inhibition of growth at 10 µM (SF-268 [33]): 31%
inhibition of growth at 10 µM (SW-620): 12%
inhibition of growth at 10 µM (SNB-75 [34]): 71%
inhibition of growth at 10 µM (KM12 [35]): 50%
inhibition of growth at 10 µM (HT-29): 22%
inhibition of growth at 10 µM (HOP-92 [36]): 58%
inhibition of growth at 10 µM (NCI-H460 [37]): 21%
inhibition of growth at 10 µM (A549): 32%
inhibition of growth at 10 µM (SR [38]): 72%
inhibition of growth at 10 µM (MOLT-4 [39]): 60%
inhibition of growth at 10 µM (RPMI-8226 [40]): 57%
inhibition of growth at 10 µM (K562 [41]): 64%
inhibition of growth at 10 µM (HL-60(TB) [42]): 66%
